The supplement of paper PMC11451515

Tested on: NOMO1
Experiment: cell viability relative to DMSO control; higher = less cytotoxic
Conditions: 48 h
Outline: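 Library compounds in DMSO were pin-dosed into 1536-well plates (5 μl) holding NOMO1 or SEM (500 cells/well) or P12-Ichikawa (1000 cells/well) leukemia cells, across an 11-point threefold series of 47 μM to 0.79 nM. Each cell line had been adapted for at least four passages in each medium. CellTiter-Glo One luminescence was read after 48 h at 37°C. Viability is the per-plate percentage relative to DMSO wells, with cell-free wells as background.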

[1] = RPMI 5 mM glucose + 10% FBS, 0.000781 µM
[2] = RPMI 5 mM glucose + 10% FBS, 0.00234 µM
[3] = RPMI 5 mM glucose + 10% FBS, 0.00702 µM
[4] = RPMI 5 mM glucose + 10% FBS, 0.0211 µM
[5] = RPMI 5 mM glucose + 10% FBS, 0.0632 µM
[6] = RPMI 5 mM glucose + 10% FBS, 0.19 µM
[7] = RPMI 5 mM glucose + 10% FBS, 0.569 µM
[8] = RPMI 5 mM glucose + 10% FBS, 1.71 µM
[9] = RPMI 5 mM glucose + 10% FBS, 5.12 µM
[10] = RPMI 5 mM glucose + 10% FBS, 15.4 µM
[11] = RPMI 5 mM glucose + 10% FBS, 46.1 µM
[12] = RPMI 5 mM glucose + 10% dialyzed FBS, 0.000781 µM
[13] = RPMI 5 mM glucose + 10% dialyzed FBS, 0.00234 µM
[14] = RPMI 5 mM glucose + 10% dialyzed FBS, 0.00702 µM
[15] = RPMI 5 mM glucose + 10% dialyzed FBS, 0.0211 µM
[16] = RPMI 5 mM glucose + 10% dialyzed FBS, 0.0632 µM
[17] = RPMI 5 mM glucose + 10% dialyzed FBS, 0.19 µM
[18] = RPMI 5 mM glucose + 10% dialyzed FBS, 0.569 µM
[19] = RPMI 5 mM glucose + 10% dialyzed FBS, 1.71 µM
[20] = RPMI 5 mM glucose + 10% dialyzed FBS, 5.12 µM
[21] = RPMI 5 mM glucose + 10% dialyzed FBS, 15.4 µM
[22] = RPMI 5 mM glucose + 10% dialyzed FBS, 46.1 µM
[23] = HPLM + 10% dialyzed FBS, 0.000781 µM
[24] = HPLM + 10% dialyzed FBS, 0.00234 µM
[25] = HPLM + 10% dialyzed FBS, 0.00702 µM
[26] = HPLM + 10% dialyzed FBS, 0.0211 µM
[27] = HPLM + 10% dialyzed FBS, 0.0632 µM
[28] = HPLM + 10% dialyzed FBS, 0.19 µM
[29] = HPLM + 10% dialyzed FBS, 0.569 µM
[30] = HPLM + 10% dialyzed FBS, 1.71 µM
[31] = HPLM + 10% dialyzed FBS, 5.12 µM
[32] = HPLM + 10% dialyzed FBS, 15.4 µM
[33] = HPLM + 10% dialyzed FBS, 46.1 µM

Compound	cell viability [1] [%]	cell viability [2] [%]	cell viability [3] [%]	cell viability [4] [%]	cell viability [5] [%]	cell viability [6] [%]	cell viability [7] [%]	cell viability [8] [%]	cell viability [9] [%]	cell viability [10] [%]	cell viability [11] [%]	cell viability [12] [%]	cell viability [13] [%]	cell viability [14] [%]	cell viability [15] [%]	cell viability [16] [%]	cell viability [17] [%]	cell viability [18] [%]	cell viability [19] [%]	cell viability [20] [%]	cell viability [21] [%]	cell viability [22] [%]	cell viability [23] [%]	cell viability [24] [%]	cell viability [25] [%]	cell viability [26] [%]	cell viability [27] [%]	cell viability [28] [%]	cell viability [29] [%]	cell viability [30] [%]	cell viability [31] [%]	cell viability [32] [%]	cell viability [33] [%]
Cc1ccccc1C(=O)c1ccc(Nc2ccc(Br)cc2N)cc1Cl	107	123	116	122	120	113	110	121	116	103	90.1	131	116	112	120	118	126	107	121	114	93.7	71.5	–	–	–	–	–	–	–	–	–	–	–
O=C(O)C1(Cc2cccc(Nc3nccs3)n2)CCC(Oc2cccc(Cl)c2F)CC1 (centres undefined)	110	96.2	99.5	91.9	106	102	96.9	74.1	43.7	31.8	23.2	107	104	98.8	104	105	105	102	72	50.4	34.4	34	98.9	116	117	108	104	116	120	69.6	45.3	34.2	35.5
CC(C)C1NC(=O)C(NC(=O)C2=C3\N=C\4/C(=C(C)\C(=O)\C(=C4C(=O)NC5C(C)OC(=O)C(C(C)C)N(C)C(=O)CN(C)C(=O)C6CCCN6C(=O)C(NC5=O)C(C)C)N)OC3=C(C)C=C2)C(C)OC(=O)C(C(C)C)N(C)C(=O)CN(C)C(=O)C7CCCN7C1=O (centres undefined)	7.96	9.36	7.73	5.14	6.66	5.99	5.54	6.58	4.43	2.79	1.97	5.95	8.79	6.56	5.07	5.04	5.51	4.5	3.94	3.31	2.14	2	7.64	9.4	7.42	5.43	6.88	5.51	6.57	6.12	3.81	2.42	2.47
COC\1=C(/OC)C(=O)\C(=C(C)/C1=O)CCCCCCCCCCO	–	–	–	–	–	–	–	–	–	–	–	–	–	–	–	–	–	–	–	–	–	–	97.4	132	118	148	114	134	153	154	148	122	61.6
Cc1onc(-c2ccccc2Cl)c1C(=O)N[C@@H]1C(=O)N2[C@@H]1SC(C)(C)[C@@H]2C(=O)[O-]	112	119	134	110	104	115	115	107	99.5	97.9	94.3	117	124	123	103	111	103	102	108	110	84.1	96.3	104	104	123	116	98.9	103	105	113	92.8	105	84.7
CN[C@@H](C)[C@H]1[C@H](O)C[C@@]2(C)[C@@H]3CC[C@H]4C(C)(C)[C@@H](NC)CC[C@@]45C[C@@]35CC[C@]12C	85.4	94.5	91.6	94.3	102	102	95	94.8	93.9	95.7	92.5	86.4	87.8	101	99.6	104	95.6	93.1	91.7	86.1	99.6	72.1	81.4	102	81.7	108	89.8	93.7	105	95.2	82.6	105	70.9
O=C(O)CCC1CCC(c2cc(F)ccc2F)([S+](=O)([O-])c2ccc(Cl)cc2)CC1 (centres undefined)	122	115	125	124	117	146	126	64	25.2	21.7	23.8	109	137	104	129	126	137	125	102	28.5	33	28.2	98.6	117	137	124	140	139	146	85.2	30.5	35.4	34
COc1cc(F)c(F)c(Nc2ccc(I)cc2F)c1N[S+](=O)([O-])C1(C[C@H](O)CO)CC1	104	95.3	94.9	99.4	99.5	102	92.5	111	93.2	87.9	86.5	112	110	109	115	108	106	110	122	106	88.8	71.9	111	119	117	113	116	113	101	113	99.3	91.8	57
CC[S+](=O)([O-])c1cccc(-c2cc(C(=O)NC3CCN(C)CC3)c(C)c3[nH]c4ncc(C)cc4c23)c1	114	115	114	135	128	111	77.3	83.9	92.6	47	8.64	124	122	130	128	138	87.7	80.7	86.8	80.3	48.3	8.02	118	128	120	136	126	89.9	115	68.2	52.6	51	6.96
COc1ccccc1OCC(O)COC(N)=O (centres undefined)	102	98.1	102	113	109	98	119	103	114	119	113	94.7	109	111	105	116	119	102	107	122	108	100	79.5	104	108	119	127	116	122	119	130	125	6.3
COc1ccc([C@@H]2CC(=O)c3c(O)cc(O[C@@H]4O[C@H](CO[C@@H]5O[C@@H](C)[C@H](O)[C@@H](O)[C@H]5O)[C@@H](O)[C@H](O)[C@H]4O)cc3O2)cc1O	120	106	107	114	121	118	117	123	120	119	118	98.8	106	115	113	110	96.6	115	125	115	101	101	107	117	122	128	116	123	125	118	115	108	103
O=C(C=CC#Cc1cccc(N[S+](=O)([O-])c2ccccc2)c1)NO	124	123	109	138	119	129	135	117	41.9	7.03	3.62	–	–	–	–	–	–	–	–	–	–	–	116	121	116	131	137	142	126	107	36.1	7.6	3.17
CC1(C)O[C@@H]2C[C@H]3[C@@H]4C[C@H](F)C5=CC(=O)C=C[C@]5(C)[C@@]4(F)[C@@H](O)C[C@]3(C)[C@]2(C(=O)CO)O1	115	101	108	108	112	114	106	102	104	97.9	91.7	109	109	98.3	114	112	102	96.7	102	110	97.8	86.5	105	112	121	122	121	101	101	118	112	108	94
CC(C)N[C@@H]1CCn2c(=O)[nH]c3cccc(c32)[C@H]1O	119	110	121	119	111	108	117	104	105	103	55.6	–	–	–	–	–	–	–	–	–	–	–	–	–	–	–	–	–	–	–	–	–	–
OC[C@H]1O[C@H]([C@H](O)[C@@H]1O)N2\C=C/C(=O)NC2=O	89.4	87.3	95.6	85.4	94.7	96.5	94.6	91.4	79.4	91.6	80.8	93.9	85.1	99.8	99.3	95.7	103	104	93.7	96	90.5	87.8	111	127	105	114	122	107	103	119	118	95.4	98.4
